Data published in ChEMBL document CHEMBL3769367, “Orexin Receptor Antagonists: New Therapeutic Agents for the Treatment of Insomnia” (J Med Chem, 2016).
pIC50: −log10 of the molar value. One block for each molecule: values may come before it.

Experiments:
[1] = Plasma protein binding in Wistar rat; type: ADME, cell-free; conditions: read-out: PPB (converted)
Canis familiaris = test: Effect on sleep parameter in po dosed Beagle dog by EEG analysis; type: functional, Canis lupus familiaris
[2] = Ratio of drug level in brain to plasma in Wistar rat; type: ADME, cell-free; conditions: read-out: BPR
Rattus norvegicus [3] = test: Effect on sleep parameter in po dosed Wistar rat by EEG analysis; type: functional
[4] = Plasma protein binding in Beagle dog; type: ADME, cell-free, Canis lupus familiaris; conditions: read-out: PPB (converted)
[5] = Plasma protein binding in human; type: ADME, cell-free; conditions: read-out: PPB (converted)
[6] = Clearance in Wistar rat at 1 mg/kg, iv; type: ADME, organism-based; conditions: in vivo
[7] = Half life in Wistar rat at 1 mg/kg, iv; type: ADME, organism-based; conditions: in vivo
[8] = Clearance in Beagle dog 1 mg/kg, iv; type: ADME, organism-based, Canis lupus familiaris; conditions: in vivo
[9] = Half life in Beagle dog 1 mg/kg, iv; type: ADME, organism-based, Canis lupus familiaris; conditions: in vivo
[10] = Oral bioavailability in Wistar rat at 10 mg/kg; type: ADME, organism-based; conditions: in vivo
[11] = Oral bioavailability in Beagle dog at 3 mg/kg; type: ADME, organism-based, Canis lupus familiaris; conditions: in vivo
[12] = Tmax in human at 1 to 1500 mg, po administered as single dose; type: ADME, organism-based; conditions: in vivo
[13] = Half life in human plasma at 1 to 1500 mg, po administered as single dose; type: ADME, organism-based
Cytochrome P450 3A4 = Cytochrome P450 3A4 (Homo sapiens, UniProt P08684); test: Inhibition of CYP3A4 (unknown origin); type: ADME
Cytochrome P450 3A4, sequence (P08684 whole entry): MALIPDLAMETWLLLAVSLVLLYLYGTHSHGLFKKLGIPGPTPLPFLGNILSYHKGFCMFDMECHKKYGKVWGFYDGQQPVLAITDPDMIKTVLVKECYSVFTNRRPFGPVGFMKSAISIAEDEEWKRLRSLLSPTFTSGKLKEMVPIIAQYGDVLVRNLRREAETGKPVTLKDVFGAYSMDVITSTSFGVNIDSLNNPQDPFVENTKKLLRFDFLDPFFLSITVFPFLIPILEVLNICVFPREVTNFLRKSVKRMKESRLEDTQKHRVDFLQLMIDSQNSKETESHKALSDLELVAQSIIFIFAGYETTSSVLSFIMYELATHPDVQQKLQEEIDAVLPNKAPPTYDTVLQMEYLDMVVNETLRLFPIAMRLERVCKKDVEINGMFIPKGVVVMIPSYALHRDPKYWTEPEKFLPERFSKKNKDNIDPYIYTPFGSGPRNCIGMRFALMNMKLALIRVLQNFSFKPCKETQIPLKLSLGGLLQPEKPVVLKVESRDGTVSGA

Rattus norvegicus [14] = organism: Rattus norvegicus; test: Receptor occupancy at OX2R in rat brain assessed as drug level in plasma; type: functional
[15] = target: T1, Orexin/Hypocretin receptor type 1 (Homo sapiens, UniProt O43613); test: Antagonist activity at human OX1R expressed in CHO cells by FLIPR assay; type: cell-based
T1 sequence (O43613 whole entry): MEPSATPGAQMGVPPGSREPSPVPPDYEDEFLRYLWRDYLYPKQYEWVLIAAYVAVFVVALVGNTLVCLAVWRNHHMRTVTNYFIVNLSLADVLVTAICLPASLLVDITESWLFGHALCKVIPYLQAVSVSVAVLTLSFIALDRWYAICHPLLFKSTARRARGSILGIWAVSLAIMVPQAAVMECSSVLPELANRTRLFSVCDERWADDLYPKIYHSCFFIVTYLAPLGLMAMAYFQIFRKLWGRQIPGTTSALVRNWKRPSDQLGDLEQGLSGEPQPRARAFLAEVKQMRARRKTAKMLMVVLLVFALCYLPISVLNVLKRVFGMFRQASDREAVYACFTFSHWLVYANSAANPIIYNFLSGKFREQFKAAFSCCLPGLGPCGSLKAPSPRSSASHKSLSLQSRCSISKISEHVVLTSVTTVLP

Orexin receptor type 2 = target: T2, Orexin receptor type 2 (Homo sapiens, UniProt O43614); test: Antagonist activity at human OX2R expressed in CHO cells by FLIPR assay; type: cell-based
T2 sequence (O43614 whole entry): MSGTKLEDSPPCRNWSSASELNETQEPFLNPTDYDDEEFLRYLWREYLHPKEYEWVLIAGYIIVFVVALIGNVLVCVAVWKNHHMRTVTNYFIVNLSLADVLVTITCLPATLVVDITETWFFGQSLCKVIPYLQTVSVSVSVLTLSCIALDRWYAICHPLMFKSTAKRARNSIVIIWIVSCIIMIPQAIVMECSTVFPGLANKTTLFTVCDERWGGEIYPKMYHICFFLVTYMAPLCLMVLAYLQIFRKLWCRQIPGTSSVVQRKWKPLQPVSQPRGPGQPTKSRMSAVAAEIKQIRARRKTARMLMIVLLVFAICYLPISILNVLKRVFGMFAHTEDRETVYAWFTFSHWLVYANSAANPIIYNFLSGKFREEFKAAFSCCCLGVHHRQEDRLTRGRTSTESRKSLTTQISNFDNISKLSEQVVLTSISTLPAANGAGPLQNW

[16] = Plasma protein binding in Sprague-Dawley rat; type: ADME, cell-free; conditions: read-out: PPB (converted)
[17] = Plasma protein binding in rhesus monkey; type: ADME, cell-free, Macaca mulatta; conditions: read-out: PPB (converted)
[18] = Clearance in iv dosed Sprague-Dawley rat; type: ADME, organism-based; conditions: in vivo
[19] = Half life in iv dosed Sprague-Dawley rat; type: ADME, organism-based; conditions: in vivo
[20] = Clearance in iv dosed Beagle dog; type: ADME, organism-based, Canis lupus familiaris; conditions: in vivo
[21] = Half life in human plasma at 5 to 250 mg, po; type: ADME, organism-based
[22] = Tmax in human plasma at 5 to 250 mg, po; type: ADME, organism-based
[23] = Lipophilicity, log D of the compound; type: physicochemical; conditions: octanol/water
Liver microsome = test: GSH activity in human liver microsomes assessed as reduction in GSH adduct formation; type: ADME; parameters: scale not given: the % may be the effect or the level left
[24] = Half life in iv dosed Beagle dog; type: ADME, organism-based, Canis lupus familiaris; conditions: in vivo
[25] = Clearance in iv dosed rhesus monkey; type: ADME, organism-based, Macaca mulatta; conditions: in vivo
[26] = Half life in iv dosed rhesus monkey; type: ADME, organism-based, Macaca mulatta; conditions: in vivo
[27] = Oral bioavailability in Sprague-Dawley rat; type: ADME, organism-based; conditions: in vivo
[28] = Oral bioavailability Beagle dog; type: ADME, organism-based, Canis lupus familiaris; conditions: in vivo
[29] = Oral bioavailability rhesus monkey; type: ADME, organism-based, Macaca mulatta; conditions: in vivo
Rattus norvegicus [30] = test: Effect on sleep parameter in po dosed Sprague-Dawley rat by EEG analysis; type: functional
Mus musculus = test: Effect on sleep parameter in po dosed C57/BL6 mouse by EEG analysis; type: functional
Rhesus monkey = test: Effect on sleep parameter in po dosed rhesus monkey by EEG analysis; type: functional, Macaca mulatta

- fraction unbound [1]: 0.007
- Kp [2]: 0.46
- fraction unbound [4]: 0.011
- fraction unbound [5]: 0.007
- clearance [6]: 1.74 L/h/kg
- half-life [7]: 1.9 h
- clearance [8]: 0.66 L/h/kg
- half-life [9]: 1.7 h
- bioavailability [10]: 39%
- bioavailability [11]: 52%
- Tmax [12]: 1.5 h
- half-life [13]: 10 h
SMILES: COc1ccc(S(=O)(=O)N2CCC[C@H]2C(=O)Nc2cc(C)cc(C)c2)cc1 [ACT-462206]
- Activity (Canis familiaris): 100 mg/kg
- Activity (Rattus norvegicus [3]): 100 mg/kg

- pIC50 (Cytochrome P450 3A4): 4.55
- fraction unbound [4]: 0.29
- fraction unbound [5]: 0.03
- pIC50 [15]: 5.75
- pIC50 (Orexin receptor type 2): 7.74
- fraction unbound [16]: 0.19
- fraction unbound [17]: 0.06
- clearance [18]: 2.16 L/h/kg
- half-life [19]: 0.3 h
- clearance [20]: 0.96 L/h/kg
- half-life [21]: 1.6 h
- Tmax [22]: 1 h
- logD [23]: 1.8
- Activity (Liver microsome): 85%
- half-life [24]: 1 h
- clearance [25]: 0.72 L/h/kg
- half-life [26]: 0.8 h
- bioavailability [27]: 54%
- bioavailability [28]: 48%
- bioavailability [29]: 16%
SMILES: COc1ccc(CNC(=O)c2cc(-c3cncc(Cl)c3)cnc2-c2ccccn2)nc1OC [MK-1064]
- Activity (Canis familiaris): 1 mg/kg
- Occ90 (Rattus norvegicus [14]): 695 nM
- Activity (Rattus norvegicus [30]): 20 mg/kg
- Activity (Mus musculus): 100 mg/kg
- Activity (Rhesus monkey): 10 mg/kg
